System: Concord grape vines
Assay: Bud break and shoot growth of potted dormant Concord grape vines in the greenhouse (Example 1)
Format: in vivo
Details: for % bud break (vines with at least one bud break): hydrogen cyanamide 10,000 ppm, 17-0-0 197,100 ppm, 15-0-0 239,060 ppm, ACC 1,000 ppm
Description: An aqueous 50% hydrogen cyanamide solution (Sigma-Aldrich, St. Louis, Mo. USA) was used as the source of hydrogen cyanamide. The commercial product, Dormex® contains 50% hydrogen cyanamide (w/v) in water.
Erger® was used as the source of 15-0-0 fertilizer. (Erger is a registered trademark of Valagro S.P.A., Italy and is available from Helena Chemical Company, Collierville, Tenn., USA). Erger® contains 15% total nitrogen as 3.1% ammoniacal nitrogen, 5.8% nitrate nitrogen and 6.1% urea nitrogen and 3.3% calcium derived from ammonium nitrate, calcium nitrate and urea. As used herein, the term “15-0-0 fertilizer” refers to the Erger® formulation above and all formulations described in International PCT application publication WO/2001/037653A2 by Valagro S.P.A., Italy, which is incorporated, herein, in its entirety.
CAN-17 was used as the source of 17-0-0 fertilizer. CAN-17 contains 17% total nitrogen as 4.6% ammonium nitrogen and […] nitrate nitrogen and 1.3% urea nitrogen and 8.8% calcium derived from ammonium nitrate and calcium nitrate. CAN-17 is available from J.R. Simplot Company (Boise, Id., USA).
To assess the ability of mixtures of the invention to promote and synchronize bud break these mixtures were applied to Concord grape vines and examined for bud break (initiation of growth) and subsequent shoot development. Specifically, 1 year old dormant bare rooted Concord grape vines were planted in pots containing Pro-Mix® BX potting soil (Pro-Mix is a registered trademark of and available from Premier Horticulture Ltd.) and pruned to 5 nodes on a single shoot. Aqueous solutions of thidiazuron, hydrogen cyanamide, 15-0-0 fertilizer, 17-0-0 fertilizer and 1-aminocyclopropane-1-carboxylic acid (“ACC”), and mixtures thereof were each applied individually or sequentially or co-applied to the first-year wood of separate Concord grape vines. Plants were grown in the greenhouse for 49 days and evaluated for percent of vines showing bud break, or relief from dormancy, periodically between 7 days and the conclusion of the experiment. […] At 49 days after treatment (DAT), the plants were sacrificed and measured for total number of flower clusters, total new shoot length, longest new shoot, combined new shoot fresh weight and combined new shoot dry weight. New shoot growth is the growth arising from the dormant buds not including the woody growth that was planted and gave rise to the new growth.
Synergy is calculated by the Abbott method: %Cexp=A+B−(AB/100), where % Cexp is the expected efficacy and in which A and B are the speed of bud break or shoot length or shoot weight given by the single active ingredients. If the ratio between the experimentally observed efficacy of the mixture Cobs and the expected efficacy of the mixture is greater than 1, synergistic interactions are present in the mixture” (Gisi, Synergistic Interaction of Fungicides in Mixtures, The American Phytopathological Society, 86:11, 1273-1279,1996).

[1] = 49 days post treatment, thidiazuron ppm as in label, other concentrations as in Table 1

NC1(C(=O)O)CC1 [ACC, 1-aminocyclopropane-1-carboxylic acid]
% bud break (vines with at least one bud break) (7 DAT, thidiazuron 300 ppm unless label states other): 0%
% bud break (vines with at least one bud break) (10 DAT, thidiazuron 300 ppm unless label states other): 11.1%
% bud break (vines with at least one bud break) (13 DAT, thidiazuron 300 ppm unless label states other): 11.1%
% bud break (vines with at least one bud break) (15 DAT, thidiazuron 300 ppm unless label states other): 11.1%
% bud break (vines with at least one bud break) (17 DAT, thidiazuron 300 ppm unless label states other): 11.1%
% bud break (vines with at least one bud break) (20 DAT, thidiazuron 300 ppm unless label states other): 11.1%
% bud break (vines with at least one bud break) (22 DAT, thidiazuron 300 ppm unless label states other): 22.2%
% bud break (vines with at least one bud break) (24 DAT, thidiazuron 300 ppm unless label states other): 22.2%
% bud break (vines with at least one bud break) (27 DAT, thidiazuron 300 ppm unless label states other): 22.2%
% bud break (vines with at least one bud break) (29 DAT, thidiazuron 300 ppm unless label states other): 33.3%
% bud break (vines with at least one bud break) (31 DAT, thidiazuron 300 ppm unless label states other): 33.3%
% bud break (vines with at least one bud break) (34 DAT, thidiazuron 300 ppm unless label states other): 55.6%
% bud break (vines with at least one bud break) (36 DAT, thidiazuron 300 ppm unless label states other): 66.7%
% bud break (vines with at least one bud break) (38 DAT, thidiazuron 300 ppm unless label states other): 77.8%
% bud break (vines with at least one bud break) (41 DAT, thidiazuron 300 ppm unless label states other): 77.8%
% bud break (vines with at least one bud break) (43 DAT, thidiazuron 300 ppm unless label states other): 77.8%
% bud break (vines with at least one bud break) (49 DAT, thidiazuron 300 ppm unless label states other): 77.8%
Combined Shoot Dry Weight [1]: 1.2 g
Combined Shoot Fresh Weight [1]: 7.1 g
Longest Shoot Length [1]: 27.9 cm
Total # of Flower Clusters [1]: 0.1
Total Shoot Length [1]: 28.9 cm
Dry Weight (g)/25% Bud Break to Harvest (d) (combined shoot dry weight at 49 DAT normalised by days from 25% bud break to harvest): 0.06 g/day
Dry Weight (g)/50% Bud Break to Harvest (d) (combined shoot dry weight at 49 DAT normalised by days from 50% bud break to harvest): 0.08 g/day
Fresh Weight (g)/50% Bud Break to Harvest (d) (combined shoot fresh weight at 49 DAT normalised by days from 50% bud break to harvest): 0.47 g/day
50% Bud Break to Harvest (harvest at day 49, thidiazuron 300 ppm unless label states other, other concentrations as in Table 1): 15 days
Initial to 50% Bud Break (synchrony of bud break, thidiazuron 300 ppm unless label states other, other concentrations as in Table 1): 25 days
25% Bud Break (DAT) (time to 25% bud break, thidiazuron 300 ppm unless label states other, other concentrations as in Table 1): 28 DAT
50% Bud Break (DAT) (time to 50% bud break, thidiazuron 300 ppm unless label states other, other concentrations as in Table 1): 34 DAT

— patent US10757943B2, “Thidiazuron mixtures and uses thereof” (Valent BioSciences LLC, priority 2017, dated 2020)
